Data reported in patent US7745446B2, “Pyrazolo[1,5-c]pyrimidines” (Bayer Schering Pharma Aktiengesellschaft, priority 2004, dated 2010).
Like-named read-outs stand apart in the source and are kept apart here.

How the values were obtained:
MDA-MB-468 cells [1] = test system: MDA-MB-468 cells
MCF7 cells [2] = test system: MCF7 cells
MDA-MB-468 cells [3] = assay: Cellular proliferation/cytotoxicity assay (Alamar Blue), MDA-MB-468; conditions: Homo sapiens, MDA-MB-468, 48 h, read-out: Anti-proliferative/cytotoxic activity: IC50 MDA468
GST-ΔPH-Akt1 = biological target: T1, GST-ΔPH-Akt1 (Homo sapiens, UniProt P31749); assay: Biochemical ΔPH Akt1 assay (flashplate, 33P incorporation into histone 2B); conditions: 100 nM ATP, histone 2B substrate; read-out: ΔPHAkt1 inhibition: IC50
T1 construct: named GST-deltaPH-Akt1; 107-480aa; cloned in the pAcGl vector; GST (N); made in house; host or cells: SF9 insect cells (baculovirus vector pAcG1), co-expressed with PDK1
Summary of the method: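 The enzyme was GST-fused human Akt1 lacking the PH domain (aa 107–480), co-expressed with PDK1 in Sf9 cells, at 100 ng/well, with 100 ng/well histone 2B substrate and 100 nM ATP including 33P-ATP. 33P incorporation was counted on scintillant-coated flashplates.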

[4] = biological target: T2, full-length Akt1 (active) (Homo sapiens, UniProt P31749); assay: Biochemical Akt1 assay (full-length Akt1 active, flashplate, Crosstide); conditions: 100 nM ATP, Crosstide substrate; read-out: Akt1 inhibition (full-length Akt1, active): IC50
T2 construct: recombinant full-length human Akt1, containing N-terminal His6 tag; His6 (N); GST (N); purchased Upstate, UK #14-276; host or cells: baculovirus infected Sf21 insect cells
Description: For the biochemical Akt1 assay recombinant full-length human Akt1, containing N-terminal His6 tag is cloned and expressed in baculovirus infected Sf21 insect cells. Akt1 is activated with GST-MAPKAP-K2 and PDK1, and repurified on Ni2+/NTA-agrose and glutathioneagarose (Upstate, UK; #14-276).
In order to study the inhibition of Akt1 (full-length version) according to the invention, a flashplate-based assay has been developed.
The full-length Akt1 assay is a biochemical assay using Akt1 N-terminally fused to GST and co-expressed with PDKI in insect cells. The Akt1 assay is run in 96 well plates by incubating 500 ng/well GST-Akt1, 1 μM Crosstide (N-terminally biotinylated synthetic peptide (KGSGSGRPRTSSFAEG) Upstate, #12-385) as substrate, 10 μl of test compound (test compounds were dissolved as 10 mM solutions in dimethylsulfoxide (DMSO) and subsequently diluted) and 100 nM ATP (including ^33P-ATP) in 100 μl of reaction buffer (50 mM HEPES, pH7,5; 3 mM MgCl2; 3 mM MnCl2; 3 μM Na-Orthovanadat; 1 mM DTT; 1 μg/ml PEG8000) for 60 minutes at 30° C. in 96 well microtiter plates. The reactions are terminated by adding 100 μl stopping buffer (5M NaCl, 35 mM EDTA pH 8.0) for 5 minutes. 190μl of the reaction mixture are transferred into streptavidin-coated Flashplates (Perkin Elmer, #SMP-103) and incubated for further 30 minutes at room temperature. The plates are washed 3 times by using washing buffer (0.9% NaCl). Relying on the incorporation of ^33P into the peptide substrate crosstide, the detection is based on the specific binding of the biotinylated peptide to the streptavidin-coated surface of scintillator-coated flash plates (NEN, USA; #SMP-103). This phosphorylation is measured by counting the plate for 60 sec. using a plate reader (Wallac Microbeta; Perkin Elmer, USA).

PKA = biological target: T3, PKA (Homo sapiens, UniProt P17612); assay: Biochemical PKA assay (flashplate); conditions: 100 nM ATP; read-out: PKA inhibition: −log IC50 (converted)
T3 construct: His; purchased PanVera, USA #R3791; host or cells: E. coli
Method: For the biochemical PKA assay the catalytic subunit of PKA is expressed in E. coli as a His-tagged human recombinant protein and purified accordingly (PanVera, USA; #R3791).
In order to study the kinase inhibition activity of the compounds according to the invention, a flashplate-based assay has been developed for the serine/threonine kinase, PKA. The assay is run in 96 well plates by incubating 1 ng/well His-PKA (PanVera, USA; #R3791), 0.5 μM/well PKA peptide (#12-394; Upstate, USA) as substrate, 10 μl of compound of invention (test compounds were dissolved as 10 mM solutions in dimethylsulfoxide (DMSO) and subsequently diluted) and 100 nM ATP (including ^33P-ATP) in 100 μl of reaction buffer ([…], pH7,5; 3 mM MgCl2; 3 mM MnCl2; 3 μM Na-Orthovanadat; 1 mM DTT) for 80 minutes at 22° C. The reactions are stopped by adding 100 μl stopping buffer (2% H3PO4 for 5 minutes) and are washed 3 times by using washing buffer (200 μl 1×PBS). Relying on the incorporation of ^33P into the peptide substrate, the detection is based on the adhesion of the phosphorylated peptide to the surface of scintillator-coated Flash plates (Perkin Elmer, USA; #SMP-103). This phosphorylation is measured by counting the plate for 60 sec. using a plate reader (Wallac Microbeta; Perkin Elmer, USA). By using this method the IC50 of the PKA inhibition is determined.

[5] = biological target: T4, full-length Akt1 (inactive) (Homo sapiens, UniProt P31749); assay: Biochemical Akt1 assay (full-length Akt1 inactive, PDK1-dependent activation, IMAP); conditions: PDK1 and PIP3 vesicles, 50 μM ATP; read-out: Inhibition of Akt1 activation (full-length Akt1, inactive): IC50
T4 construct: recombinant full-length human Akt1 a containing N-terminal His6 tag; His6 (N); purchased Upstate, UK #14-279; host or cells: baculovirus infected Sf21 insect cells
Method: The enzyme is purified using Ni2+/NTA-agarose (Upstate, UK; #14-279).
The enzyme is purified using Ni2+/NTA-agarose.
PDK1-dependent activation and subsequent enzymatic activity of Akt1: Activity of purified human Akt1 is routinely measured in an assay in which the enzyme is first activated by PDK1 in the presence of phosphatidylinositol-3,4,5-triphosphate (PIP3). Once activated, Akt1-dependent phosphorylation of a fluorescence labelled peptide substrate is measured by fluorescence polarisation using the IMAP technology (Molecular Devices).
The phospholipids are prepared as follows: 5 mg DOPC/DOPS are solved in 200 μl 10 mM Tris (pH 7.4) and 300 μg PIP3 are resuspended in 950 μl 10 mM Tris (pH 7.4) by pipetting. 950 μl solved PIP3 are mixed with 50 μl solved DOPC/DOPS and incubated for 2 h at a temperature below 20° C. Then the mixture is subjected to sonification for 30 min. at max. power until a translucent phopholipid vesicle preparation is obtained. Aliquots of the vesicle suspension are frozen at -80° C. until needed, likewise the solved DOPC/DOPS.
Assays are performed in 384-well plates. Incubations are carried out for 60 min. at room temperature. The reaction buffer mixture contained in a final volume of 25 μl: 10 mM Tris pH 7,4, 10 mM MgCl2. 1 mM DTT, and 0.1 mg/ml BSA. In contrast the activation buffer contained: 50 ng/well Akt1, 20 ng/well PDK1, 1.25 μM peptide substrat, 50 μM ATP, and phospholipid vesicles (1:20). Test compounds are added from stock solutions in DMSO before activation of Akt1 by PDK1. After the incubation the beads (IMAP binding reagent; Molecular Devices; 1:167) are added and the fluorescence polarization is measured (excitation 485 nm, emission 530 nm).

MCF7 cells [6] = assay: Cellular proliferation/cytotoxicity assay (Alamar Blue), MCF7; conditions: Homo sapiens, MCF7, 48 h, read-out: Anti-proliferative/cytotoxic activity: IC50 MCF7

T1 sequence (P31749 107-480, stated change not applied): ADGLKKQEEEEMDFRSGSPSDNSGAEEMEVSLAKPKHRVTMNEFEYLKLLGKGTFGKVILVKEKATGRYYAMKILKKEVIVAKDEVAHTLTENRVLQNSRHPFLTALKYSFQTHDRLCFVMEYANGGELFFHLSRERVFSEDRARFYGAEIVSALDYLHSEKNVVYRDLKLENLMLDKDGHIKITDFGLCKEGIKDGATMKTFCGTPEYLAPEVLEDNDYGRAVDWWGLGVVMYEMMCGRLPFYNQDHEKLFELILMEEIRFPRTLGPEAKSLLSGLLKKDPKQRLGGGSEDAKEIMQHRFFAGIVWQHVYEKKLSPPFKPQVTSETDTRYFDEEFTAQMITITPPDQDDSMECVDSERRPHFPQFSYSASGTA
T2 sequence (P31749 whole entry): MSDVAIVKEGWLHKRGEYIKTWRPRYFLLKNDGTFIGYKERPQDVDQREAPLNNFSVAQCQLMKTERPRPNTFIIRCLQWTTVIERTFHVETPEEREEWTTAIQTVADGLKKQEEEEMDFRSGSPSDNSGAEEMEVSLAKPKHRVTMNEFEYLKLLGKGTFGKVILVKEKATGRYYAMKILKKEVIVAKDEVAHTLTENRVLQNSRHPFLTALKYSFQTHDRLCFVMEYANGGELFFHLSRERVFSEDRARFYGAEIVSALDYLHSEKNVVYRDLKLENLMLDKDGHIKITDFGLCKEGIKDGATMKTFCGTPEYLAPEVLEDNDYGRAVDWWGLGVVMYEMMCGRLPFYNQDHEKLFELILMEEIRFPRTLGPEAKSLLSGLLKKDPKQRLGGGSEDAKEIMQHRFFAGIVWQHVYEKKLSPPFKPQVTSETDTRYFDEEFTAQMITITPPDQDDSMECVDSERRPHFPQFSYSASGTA
T4 sequence (P31749 whole entry): as above

IC50 (MDA-MB-468 cells [1]) [µM] | IC50 (MCF7 cells [2]) [µM] | IC50 (GST-ΔPH-Akt1) [µM] | IC50 [4] [µM] | IC50 (PKA) [µM] | IC50 [5] [µM] | Molecule | IC50 (MDA-MB-468 cells [3]) [µM] | IC50 (MCF7 cells [6]) [µM]
≤ 13.6 | ≤ 16.9 | – | – | – | – | Aminomethyl-N-(4-{5-[6-(2-hydroxy-ethoxy)-naphthalen-2-yl]-pyrazolo[1,5-c]pyrimidin-7-ylamino}-phenyl)-benzamide [Example 50] | – | –
– | – | ≤ 1.75 | ≤ 4.03 | 6.31 to 100 | ≤ 5 | Cn1cc(-c2ccc(-c3cc4ccnn4c(Nc4ccc(NC(=O)c5ccc(CN)cc5)cc4)n3)cc2)cn1 [Example 61, 4-Aminomethyl-N-(4-{5-[4-(1-methyl-1H-pyrazol-4-yl)-phenyl]-pyrazolo[1,5-c]pyrimidin-7-ylamino}-phenyl)-benzamide] | ≤ 13.6 | ≤ 16.9
